Data taken from patent US7410806B2, “Compound for inhibiting the influx of polymorphonuclear leukocytes (PMNs) in a tissue, its selection, pharmaceutical compositions and use” (Fornix Biosciences N.V., priority 1999, dated 2008).

How the values were obtained:
[1] = system: PGP-induced PMN influx in the mouse lung; assay: PGP-induced PMN influx in the mouse lung (lung-wash cell counts); type: in vivo, Balb/c mice; conditions: for Eos in lung-wash liquid / Monos in lung-wash liquid / Neutros in lung-wash liquid / Total cells in lung-wash liquid: PBS pre-treatment, atomization of the substance (10^-3 M, 30 min), 5 h after onset, ± SEM; for Influx of neutrophilic and eosinophilic granulocytes in the lungs: atomization of the substance
Description: Solutions were prepared of N—Ac-PGP (0.36 mg/ml; 10^−3 M) and N-methyl-PGP (0.32 mg/ml; 10^−3 M) in phosphate-buffered physiological salt (PBS). In an atomizing chamber, 6-8 weeks old Balb/c mice (groups of 4 mice) were subjected for 30 minutes to either N-acetyl-PGP or N-methyl-PGP. Control mice only received PBS. One hour prior to subjection in the atomizing chamber and one hour after the start of subjection each mouse received 50 μl of 1 mg/ml 4RTR. The treatment is outlined in the Table I below.
5 Hours after the onset of subjection the mice were sacrificed by administering an overdose of Nembutal. After the application of a tracheal canula the lungs were washed with 4 ml PBS. The lung-wash liquid was centrifuged (5 min.; 4° C.; 580 g) and the cell pellet was taken up in 150 μl PBS. The cells were counted under the microscope. To distinguish between neutrophilic and eosinophilic granulocytes and mononuclear cells (haematoxylin/eosin dye, H/E dye: Diff-Quick, Merz & Dade, A. G. Dübingen, Switzerland), the cytospin technique was applied (Buckley, T. L. and Nijkamp, F. P., “Airways hyperreactivity and cellular accumulation in a delayed-type hypersensitivity reaction in the mouse: modulation by capsaicin-sensitive nerves”. Am. J. Respir. Crit. Care Med. 149: 400-407 (1994)).

[2] = system: inflammatory cells in the bronchial-alveolar liquid; type: in vivo, C57B1/6J mice; conditions: for Number PMNs in bronchial-alveolar liquid / Total number infl. cells in bronchial-alveolar liquid: substance alone, aerosol on day 0, 2 and 7, 24 h after final treatment (day 8), n=3
Description: (§1) On day 0, 2 and 7, two groups C75Bl/6J mice received 30 minutes' treatment with an aerosol (in an atomizing chamber as described in example 1) comprising (i) vehicle (phosphate-buffered physiological salt solution), (ii) N—AcPGP (0.4 mg/ml) or (iii) N—AcPGP (0.4 mg/ml) and 4-RTR (1 mg/ml). 30 minutes prior to the aerosol, the mice of group (i) and (ii) received intranasal vehicle and the mice of group (iii), 4RTR (1 mg/ml). […] (see Table III).

[3] = system: alveolar dilatation (lung emphysema); assay: Lung emphysema induced by N-AcPGP: mean linear intercept (Lm); type: in vivo, C75Bl/6J mice; conditions: N-AcPGP aerosol day 0, 2, 7; lungs on day 21; FIG. 1
Description: as §1
On day 21 the mice of the second group (which on day 0, 2, and 7 were treated in the same manner as the mice of the first group), were sacrificed by means of an overdose of anaesthetic (Nembutal) and the lungs were isolated and fixed by filling the lungs with Carnoy's fixative under a liquid pressure of 25 cm. The lungs were prepared for histological analysis. The mean linear intercept (Lm), indicative for alveolar dilatation, was calculated by placing a grid over the illustrations of 5 separate fields (300× magnification) per mouse lung. The total length of the lines was divided by the number of intercepts, resulting in the Lm, providing a measure for the average size of the bronchial volume of the lung.

Row | Substance | Eos in lung-wash liquid [1] | Monos in lung-wash liquid [1] | Neutros in lung-wash liquid [1] | Total cells in lung-wash liquid [1] | Influx of neutrophilic and eosinophilic granulocytes in the lungs [1] | Number PMNs in bronchial-alveolar liquid [2] | Total number infl. cells in bronchial-alveolar liquid [2] | Mean linear intercept (Lm), indicative for alveolar dilatation [3] | Increase of the total number of inflammatory cells in the bronchial-alveolar washing liquid in comparison with the vehicle control ([2]; N-AcPGP 0.4 mg/ml aerosol day 0, 2, 7, day 8)
1 | N-methyl-Pro-Gly-Pro [N-methylPGP] | 0.2 ± 0.1 ×10^4 cells/ml | 33.9 ± 3.4 ×10^4 cells/ml | 11.9 ± 3.6 ×10^4 cells/ml | 46.1 ± 3.2 ×10^4 cells/ml | results in the influx of neutrophilic and eosinophilic granulocytes in the lungs | – | – | – | –
2 | FMLP | – | – | – | – | – | 10.7± 3 ×10^5 | 61 ± 5 ×10^5 | – | –
3 | N-acetyl-Pro-Gly-Pro [N-AcPGP] | 1.1 ± 0.6 ×10^4 cells/ml | 28.3 ± 8.6 ×10^4 cells/ml | 20.1 ± 7.5 ×10^4 cells/ml | 49.5 ± 3.1 ×10^4 cells/ml | results in the influx of neutrophilic and eosinophilic granulocytes in the lungs | 11.7 ± 0.8 ×10^5 | 55 ± 1 ×10^5 | significant increase | 2 fold
